Laboratory results published in patent US20120141440A1, “FOAMYVIRUS VECTORS AND METHODS OF USE” (priority 2009, published 2012).

Test system: 293T cells
Assay: Western blot of protein expressed from wild-type and human codon optimized foamyvirus gag, pol and env constructs
Type: cell-based
Conditions: optimized vs wild-type sequence
Text: To assessing the amount of protein that was present in virus producing cells upon transfection of the human codon usage-optimized cDNAs in comparison with the wild-type sequences, 293T packaging cells were transfected with equal amounts of the corresponding plasmids in sequential dilutions. DNA (pUC19) from a cloning vector was utilized to keep the absolute amount of DNA transfected into 293T cells the same. For FV gag and pol, the only difference between the two plasmids was the optimization of the FV gene for human codon usage. For the PFV env gene, the human optimized ORF in a vector with slice donor and acceptor sites was compared to the non-optimzed sequence expressed without splice sites in the same vector. Additionally, the expression of optimized simian FV (SFV) env contained on pUC19, like the above comparisons, was compared to a non-optimized SFV env contained on a pCL (Promega).

In the case of “SFV-1 env: Homo sapiens optimized Env cDNA from Simian Foamy Virus (SFV-1) (SEQ. ID. No. 4)”, the “protein levels increased through optimization of the FV genes for human codon usage” value is reported as “increased”.
